Reference: DBAASP
Converted amounts (≈) assume the structure as drawn.

Experiments:
Experiment in all cases: ≥ marks a high value that may be exact or a test limit, other limits are often not marked, values filed in µg/mL are converted to µM
[1] = test system: Escherichia coli ATCC 25922
[2] = test system: Staphylococcus aureus FDA 209P
[3] = test system: Acholeplasma laidlawii A-EF22
[4] = test system: Streptococcus sanguinis NY101
[5] = test system: Pseudomonas aeruginosa PAK
Staphylococcus aureus = test system: Staphylococcus aureus
[6] = test system: Streptococcus mitis ATCC 903
[7] = test system: Streptococcus mutans UA159
[8] = test system: Streptococcus gordonii Challis DL1
Escherichia coli JM109 = test system: Escherichia coli JM109
[9] = test system: Staphylococcus aureus ATCC 6538P
Salmonella typhimurium = test system: Salmonella typhimurium
[10] = test system: Bacillus subtilis IAM 1026
[11] = test system: Aeromonas salmonicida NCIMB 1102
[12] = test system: Vibrio parahaemolyticus Vp+1
[13] = test system: Photobacterium damselae subsp. piscicida Sp 9587
[14] = test system: Shewanella putrefaciens IAM 1509
[15] = test system: Escherichia coli JCM 1649
[16] = test system: Vibrio anguillarum NCIMB 829
[17] = test system: Staphylococcus aureus IAM 1011
Pseudomonas aeruginosa = test system: Pseudomonas aeruginosa
Escherichia coli U16318 = test system: Escherichia coli U16318
Escherichia coli K91BK = test system: Escherichia coli K91BK
[18] = test system: Bacillus subtilis var. niger ATCC 9372
[19] = test system: Staphylococcus aureus B38302
[20] = test system: Bacillus anthracis Sterne 34F2

CC[C@H](C)[C@H](NC(=O)CNC(=O)[C@H](CCCCN)NC(=O)[C@@H](NC(=O)CNC(=O)[C@H](CCCCN)NC(=O)[C@@H](NC(=O)[C@@H](NC(=O)[C@H](CCSC)NC(=O)[C@H](CC(N)=O)NC(=O)[C@H](CCCCN)NC(=O)[C@@H](NC(=O)CNC(=O)[C@H](CCCCN)NC(=O)CNC(=O)[C@H](C)NC(=O)[C@H](Cc1ccccc1)NC(=O)[C@H](CCCCN)NC(=O)[C@H](CO)NC(=O)[C@H](Cc1ccccc1)NC(=O)[C@H](CC(C)C)NC(=O)CN)[C@@H](C)CC)[C@@H](C)CC)[C@@H](C)CC)[C@@H](C)CC)C(=O)NCC(=O)N[C@@H](CCCCN)C(=O)N[C@@H](CCC(=O)O)C(=O)N[C@H](C(=O)NCC(=O)N[C@@H](CCSC)C(=O)N[C@@H](CC(=O)O)C(=O)N[C@H](C(=O)N[C@H](C(=O)N[C@@H](CCCN=C(N)N)C(=O)N[C@H](C(=O)NCC(=O)N[C@H](C(=O)N[C@@H](CC(=O)O)C(=O)N[C@H](C(=O)N[C@@H](C)C(=O)NCC(=O)N[C@H]1CSSC[C@@H](C(=O)O)NC(=O)[C@H](CCC(=O)O)NC(=O)CNC(=O)[C@H](CCCCN)NC(=O)[C@H]([C@@H](C)CC)NC(=O)[C@H](CCCCN)NC1=O)C(C)C)[C@@H](C)CC)[C@@H](C)O)[C@@H](C)CC)C(C)C)C(C)C [GLFSKFAGKGIKNMIIKGIKGIGKEVGMDVIRTGIDVAGCKIKGEC]
MIC [1]: 1.7 µM (≈ 8.13 µg/mL)
MIC [2]: 3 µM (≈ 14.3 µg/mL)

CC(C)C[C@H](NC(=O)[C@H](CC(C)C)NC(=O)[C@H](CCCCN)NC(=O)[C@H](CC(C)C)NC(=O)[C@H](CC(C)C)NC(=O)[C@H](CC(C)C)NC(=O)[C@@H](N)CCCCN)C(=O)N[C@@H](CCCCN)C(=O)O [KLLLKLLK]
MIC [3]: ≥ 100 µM

CC[C@H](C)[C@H](NC(=O)[C@H](Cc1ccccc1)NC(=O)CNC(=O)CNC(=O)CNC(=O)[C@H](Cc1ccccc1)NC(=O)[C@H](Cc1c[nH]c2ccccc12)NC(=O)[C@H](CCCN=C(N)N)NC(=O)[C@H](Cc1c[nH]c2ccccc12)NC(=O)[C@H](CCCN=C(N)N)NC(=O)[C@H](Cc1c[nH]c2ccccc12)NC(=O)[C@@H](N)CCCN=C(N)N)C(=O)N[C@@H](CCCCN)C(=O)N[C@@H](Cc1cnc[nH]1)C(=O)N[C@@H](Cc1ccccc1)C(=O)N[C@H](C(=O)N[C@@H](Cc1cnc[nH]1)C(=O)N[C@@H](CCCN=C(N)N)C(=O)N[C@@H](Cc1ccccc1)C(N)=O)[C@@H](C)CC [RWRWRWFGGGFIKHFIHRF]
MIC [4]: 12.4 µM (≈ 32 µg/mL)
MIC [5]: 24.1 µM (≈ 62.5 µg/mL)
MIC (Staphylococcus aureus): 12.4 µM (≈ 32 µg/mL)
MIC [6]: 12.4 µM (≈ 32 µg/mL)
MIC [7]: 3.09 µM (≈ 8 µg/mL)
MIC [8]: 12.4 µM (≈ 32 µg/mL)

CC[C@H](C)[C@H](NC(=O)[C@H](C)NC(=O)[C@H](CC(C)C)NC(=O)[C@H](CC(C)C)NC(=O)[C@H](Cc1cnc[nH]1)NC(=O)[C@H](C)NC(=O)[C@H](C)NC(=O)[C@H](CC(C)C)NC(=O)[C@@H](N)CC(C)C)C(=O)NCC(=O)N[C@@H](CCCN=C(N)N)C(=O)N[C@@H](CCCN=C(N)N)C(N)=O [LLAAHLLAIGRR]
MIC (Escherichia coli JM109): ≥ 36.8 µM
MIC [9]: 7.67 µM (≈ 9.99 µg/mL)
MIC (Staphylococcus aureus): 49.1 µM (≈ 64 µg/mL)

CC[C@H](C)[C@H](NC(=O)[C@H](Cc1ccccc1)NC(=O)CNC(=O)CNC(=O)[C@H](CO)NC(=O)[C@H](Cc1cnc[nH]1)NC(=O)[C@H](CC(C)C)NC(=O)[C@H](CC(C)C)NC(=O)[C@H](Cc1cnc[nH]1)NC(=O)[C@H](Cc1cnc[nH]1)NC(=O)[C@H](CC(C)C)NC(=O)[C@H](CCCCN)NC(=O)[C@H](CCCCN)NC(=O)[C@H](CC(C)C)NC(=O)[C@H](CC(C)C)NC(=O)[C@H](CCCN=C(N)N)NC(=O)[C@H](CCCN=C(N)N)NC(=O)[C@H](Cc1c[nH]c2ccccc12)NC(=O)[C@@H](N)CCCN=C(N)N)C(=O)N[C@@H](CCCCN)C(=O)N[C@@H](Cc1cnc[nH]1)C(=O)N[C@@H](Cc1ccccc1)C(=O)N[C@H](C(=O)N[C@@H](Cc1cnc[nH]1)C(=O)N[C@@H](CCCN=C(N)N)C(=O)N[C@@H](Cc1ccccc1)C(N)=O)[C@@H](C)CC [RWRRLLKKLHHLLHSGGFIKHFIHRF]
MIC [4]: 9.6 µM (≈ 32 µg/mL)
MIC [5]: 9.6 µM (≈ 32 µg/mL)
MIC (Staphylococcus aureus): 9.6 µM (≈ 32 µg/mL)
MIC [6]: 9.6 µM (≈ 32 µg/mL)
MIC [7]: 2.4 µM (≈ 8 µg/mL)
MIC [8]: 4.8 µM (≈ 16 µg/mL)

CC[C@H](C)[C@H](NC(=O)CNC(=O)CNC(=O)[C@@H](NC(=O)[C@@H](N)Cc1ccccc1)[C@@H](C)CC)C(=O)N[C@H](C(=O)N[C@@H](CO)C(=O)N[C@@H](Cc1ccccc1)C(=O)N[C@H](C(=O)N[C@@H](CCCCN)C(=O)N[C@@H](CCCCN)C(=O)N[C@@H](CC(C)C)C(=O)N[C@@H](Cc1ccccc1)C(=O)O)[C@@H](C)CC)[C@@H](C)CC [FIGGIISFIKKLF]
MIC (Salmonella typhimurium): ≥ 33.7 µM
MIC [10]: 4.21 µM (≈ 6.25 µg/mL)
MIC [11]: ≥ 33.7 µM
MIC [12]: 16.9 µM (≈ 25 µg/mL)
MIC [13]: 8.43 µM (≈ 12.5 µg/mL)
MIC [14]: 4.21 µM (≈ 6.25 µg/mL)
MIC [15]: ≥ 33.7 µM
MIC [16]: 8.43 µM (≈ 12.5 µg/mL)
MIC [17]: 2.11 µM (≈ 3.13 µg/mL)

CC[C@H](C)[C@H](NC(=O)CNC(=O)[C@H](CCCCN)NC(=O)[C@@H](NC(=O)CNC(=O)[C@H](CCCCN)NC(=O)[C@@H](NC(=O)[C@@H](NC(=O)[C@H](CC(C)C)NC(=O)[C@H](CC(=O)O)NC(=O)[C@H](CCCCN)NC(=O)[C@@H](NC(=O)CNC(=O)[C@H](CCCCN)NC(=O)CNC(=O)[C@H](C)NC(=O)[C@H](Cc1ccccc1)NC(=O)[C@H](CCCCN)NC(=O)[C@H](CO)NC(=O)[C@H](Cc1ccccc1)NC(=O)[C@@H](NC(=O)CN)[C@@H](C)CC)[C@@H](C)CC)[C@@H](C)CC)[C@@H](C)CC)C(C)C)C(=O)N[C@@H](C)C(=O)N[C@@H](CCCCN)C(=O)N[C@@H](CCC(=O)O)C(=O)N[C@@H](C)C(=O)NCC(=O)N[C@@H](CCSC)C(=O)N[C@@H](CC(=O)O)C(=O)N[C@H](C(=O)N[C@H](C(=O)N[C@@H](CCCN=C(N)N)C(=O)N[C@H](C(=O)NCC(=O)N[C@H](C(=O)N[C@@H](CC(=O)O)C(=O)N[C@H](C(=O)N[C@@H](C)C(=O)NCC(=O)N[C@H]1CSSC[C@@H](C(=O)O)NC(=O)[C@H](CCC(=O)O)NC(=O)CNC(=O)[C@H](CCCCN)NC(=O)[C@H]([C@@H](C)CC)NC(=O)[C@H](CCCCN)NC1=O)[C@@H](C)CC)[C@@H](C)CC)[C@@H](C)O)[C@@H](C)CC)C(C)C [GIFSKFAGKGIKDLIIKGVKGIAKEAGMDVIRTGIDIAGCKIKGEC]
MIC [1]: 3.2 µM (≈ 15.2 µg/mL)
MIC [2]: 4.9 µM (≈ 23.3 µg/mL)

CC[C@H](C)[C@H](NC(=O)[C@H](C)NC(=O)[C@H](CC(C)C)NC(=O)[C@H](CC(C)C)NC(=O)[C@H](CC(C)C)NC(=O)[C@H](C)N)C(=O)N[C@@H](CCCN=C(N)N)C(=O)N[C@@H](CCCN=C(N)N)C(=O)N[C@@H](CCCN=C(N)N)C(N)=O [ALLLAIRRR]
MIC (Escherichia coli JM109): 1.85 µM (≈ 2 µg/mL)
MIC [9]: 1.85 µM (≈ 2 µg/mL)
MIC (Staphylococcus aureus): 29.6 µM (≈ 32 µg/mL)
MIC (Pseudomonas aeruginosa): 2.77 µM (≈ 3 µg/mL)

CC(=O)N[C@@H](C)C(=O)N[C@@H](CC(C)C)C(=O)N[C@@H](Cc1c[nH]c2ccccc12)C(=O)N[C@@H](CCCCN)C(=O)N[C@H](C(=O)N[C@@H](CC(C)C)C(=O)N[C@@H](CC(C)C)C(=O)N[C@@H](CCCCN)C(=O)N[C@@H](CCCCN)C(=O)N[C@H](C(=O)N[C@@H](CC(C)C)C(=O)N[C@@H](CCCCN)C(=O)N[C@@H](C)C(N)=O)C(C)C)[C@@H](C)O [ALWKTLLKKVLKA]
MIC (Escherichia coli U16318): 25 µM (≈ 38.8 µg/mL)
MIC (Escherichia coli K91BK): ≥ 100 µM
MIC [18]: 4.42 µM (≈ 6.86 µg/mL)
MIC [19]: 25 µM (≈ 38.8 µg/mL)
MIC [20]: ≥ 70.7 µM
